Laboratory results published in PMC9600963, “Cation ATPase (ATP4) Orthologue Replacement in the Malaria Parasite Plasmodium knowlesi Reveals Species-Specific Responses to ATP4-Targeting Drugs” (mBio, 2022).

Key:
Format in all cases: cell-based
PvATP4 (PvATP4^OR line) [1] = target: T1, PvATP4 (PvATP4^OR line) (Plasmodium vivax, UniProt A5K0L8); test: growth inhibition of orthologue replacement parasite line, SYBR green I (whole-cell read-out); conditions: intact P. knowlesi parasites in erythrocytes, 27 h (one life cycle); not a direct enzyme assay
T1 construct: gene PVX_084625; full-length recodonized coding region replacing pkatp4 in P. knowlesi A1-H.1; untagged; intact parasites
Text: growth inhibition of orthologue replacement parasite line, SYBR green I (whole-cell read-out) on PvATP4 (PvATP4^OR line)

PkATP4 (PkATP4^OR line) [2] = target: T2, PkATP4 (PkATP4^OR line) (Plasmodium knowlesi, UniProt A0A384LKC1); test: as above; conditions: intact P. knowlesi parasites in erythrocytes, 27 h (one life cycle); not a direct enzyme assay
T2 construct: gene PKNH_1312000; untagged; intact parasites
T2 sequence (A0A384LKC1 1-1293): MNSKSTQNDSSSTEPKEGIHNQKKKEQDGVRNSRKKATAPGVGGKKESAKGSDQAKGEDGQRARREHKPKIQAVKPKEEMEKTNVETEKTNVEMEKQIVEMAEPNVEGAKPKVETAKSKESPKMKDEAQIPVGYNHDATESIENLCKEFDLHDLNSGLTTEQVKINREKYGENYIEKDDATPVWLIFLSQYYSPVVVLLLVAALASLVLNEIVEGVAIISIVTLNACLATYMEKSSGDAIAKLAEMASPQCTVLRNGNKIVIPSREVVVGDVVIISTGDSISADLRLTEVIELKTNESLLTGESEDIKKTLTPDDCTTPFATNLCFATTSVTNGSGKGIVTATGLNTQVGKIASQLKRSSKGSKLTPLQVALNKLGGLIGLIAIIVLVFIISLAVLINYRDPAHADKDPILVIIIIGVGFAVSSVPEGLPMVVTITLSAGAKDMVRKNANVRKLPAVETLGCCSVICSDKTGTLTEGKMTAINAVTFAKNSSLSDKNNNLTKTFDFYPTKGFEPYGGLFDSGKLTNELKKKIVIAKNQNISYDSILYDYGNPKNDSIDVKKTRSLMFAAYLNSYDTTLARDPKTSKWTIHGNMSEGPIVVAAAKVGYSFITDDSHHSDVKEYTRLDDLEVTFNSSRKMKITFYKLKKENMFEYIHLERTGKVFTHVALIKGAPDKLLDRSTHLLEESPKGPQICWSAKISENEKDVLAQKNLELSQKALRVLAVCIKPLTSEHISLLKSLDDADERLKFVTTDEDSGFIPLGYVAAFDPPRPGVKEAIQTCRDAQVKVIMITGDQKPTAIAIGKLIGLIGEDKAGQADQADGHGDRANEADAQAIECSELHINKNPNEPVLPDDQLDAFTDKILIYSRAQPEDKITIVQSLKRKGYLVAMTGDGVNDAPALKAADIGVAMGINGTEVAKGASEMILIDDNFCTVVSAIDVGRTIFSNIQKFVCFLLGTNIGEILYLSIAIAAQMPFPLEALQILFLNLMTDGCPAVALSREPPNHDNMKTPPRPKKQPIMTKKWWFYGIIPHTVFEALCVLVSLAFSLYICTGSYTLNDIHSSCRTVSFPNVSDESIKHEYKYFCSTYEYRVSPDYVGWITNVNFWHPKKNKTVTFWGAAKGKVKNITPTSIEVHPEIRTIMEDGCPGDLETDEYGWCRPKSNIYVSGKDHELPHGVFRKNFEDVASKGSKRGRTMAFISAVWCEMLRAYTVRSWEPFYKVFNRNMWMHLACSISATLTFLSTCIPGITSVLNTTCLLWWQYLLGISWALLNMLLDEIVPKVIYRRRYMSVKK
Text: growth inhibition of orthologue replacement parasite line, SYBR green I (whole-cell read-out) on PkATP4 (PkATP4^OR line)

PmATP4 (PmATP4^OR line) [3] = target: T3, PmATP4 (PmATP4^OR line) (Plasmodium malariae, UniProt A0A1A8WBD6); test: as above; conditions: intact P. knowlesi parasites in erythrocytes, 27 h (one life cycle); not a direct enzyme assay
T3 construct: gene ATP4; full-length recodonized coding region replacing pkatp4 in P. knowlesi A1-H.1; untagged; intact parasites
T3 sequence (A0A1A8WBD6 1-1380): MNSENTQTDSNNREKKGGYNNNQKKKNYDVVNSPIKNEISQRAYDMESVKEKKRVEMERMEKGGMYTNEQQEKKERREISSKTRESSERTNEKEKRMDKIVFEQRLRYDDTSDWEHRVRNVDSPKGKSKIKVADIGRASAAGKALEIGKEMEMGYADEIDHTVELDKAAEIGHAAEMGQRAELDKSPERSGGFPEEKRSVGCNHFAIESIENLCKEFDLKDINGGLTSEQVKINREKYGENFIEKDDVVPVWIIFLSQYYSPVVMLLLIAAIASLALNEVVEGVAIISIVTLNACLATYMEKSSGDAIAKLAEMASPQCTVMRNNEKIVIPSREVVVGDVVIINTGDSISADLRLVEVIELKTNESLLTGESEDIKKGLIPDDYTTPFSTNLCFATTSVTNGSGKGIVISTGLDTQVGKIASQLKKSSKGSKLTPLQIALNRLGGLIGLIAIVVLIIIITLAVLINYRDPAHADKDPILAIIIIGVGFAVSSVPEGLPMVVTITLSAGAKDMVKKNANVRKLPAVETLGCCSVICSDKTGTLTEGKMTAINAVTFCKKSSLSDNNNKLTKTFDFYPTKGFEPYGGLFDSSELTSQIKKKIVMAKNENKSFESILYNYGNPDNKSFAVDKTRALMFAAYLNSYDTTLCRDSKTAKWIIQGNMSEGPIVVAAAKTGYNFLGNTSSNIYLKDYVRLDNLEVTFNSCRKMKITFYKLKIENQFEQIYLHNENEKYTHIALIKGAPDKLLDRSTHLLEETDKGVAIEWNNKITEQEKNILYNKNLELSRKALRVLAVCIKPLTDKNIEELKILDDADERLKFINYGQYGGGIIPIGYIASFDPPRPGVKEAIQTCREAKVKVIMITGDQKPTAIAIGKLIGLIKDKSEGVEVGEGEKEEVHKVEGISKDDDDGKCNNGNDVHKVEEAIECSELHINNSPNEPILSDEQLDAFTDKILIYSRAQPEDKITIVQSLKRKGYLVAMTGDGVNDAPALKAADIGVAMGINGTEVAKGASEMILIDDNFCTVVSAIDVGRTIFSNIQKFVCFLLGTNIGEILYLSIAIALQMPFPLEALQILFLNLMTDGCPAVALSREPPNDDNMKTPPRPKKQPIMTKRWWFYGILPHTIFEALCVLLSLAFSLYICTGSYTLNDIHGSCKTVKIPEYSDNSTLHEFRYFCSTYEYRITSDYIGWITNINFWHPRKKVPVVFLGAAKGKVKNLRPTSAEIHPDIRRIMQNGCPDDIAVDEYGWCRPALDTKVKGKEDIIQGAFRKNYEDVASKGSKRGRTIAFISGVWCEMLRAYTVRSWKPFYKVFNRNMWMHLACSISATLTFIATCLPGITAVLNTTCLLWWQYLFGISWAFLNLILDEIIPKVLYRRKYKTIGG
Text: growth inhibition of orthologue replacement parasite line, SYBR green I (whole-cell read-out) on PmATP4 (PmATP4^OR line)

[4] = target: T4, PocATP4 (PocATP4^OR line) (Plasmodium ovale, UniProt A0A1D3TM67); test: as above; conditions: intact P. knowlesi parasites in erythrocytes, 27 h (one life cycle); not a direct enzyme assay
T4 construct: gene ATP4; full-length recodonized coding region replacing pkatp4 in P. knowlesi A1-H.1; untagged; intact parasites
T4 sequence (A0A1D3TM67 1-1433): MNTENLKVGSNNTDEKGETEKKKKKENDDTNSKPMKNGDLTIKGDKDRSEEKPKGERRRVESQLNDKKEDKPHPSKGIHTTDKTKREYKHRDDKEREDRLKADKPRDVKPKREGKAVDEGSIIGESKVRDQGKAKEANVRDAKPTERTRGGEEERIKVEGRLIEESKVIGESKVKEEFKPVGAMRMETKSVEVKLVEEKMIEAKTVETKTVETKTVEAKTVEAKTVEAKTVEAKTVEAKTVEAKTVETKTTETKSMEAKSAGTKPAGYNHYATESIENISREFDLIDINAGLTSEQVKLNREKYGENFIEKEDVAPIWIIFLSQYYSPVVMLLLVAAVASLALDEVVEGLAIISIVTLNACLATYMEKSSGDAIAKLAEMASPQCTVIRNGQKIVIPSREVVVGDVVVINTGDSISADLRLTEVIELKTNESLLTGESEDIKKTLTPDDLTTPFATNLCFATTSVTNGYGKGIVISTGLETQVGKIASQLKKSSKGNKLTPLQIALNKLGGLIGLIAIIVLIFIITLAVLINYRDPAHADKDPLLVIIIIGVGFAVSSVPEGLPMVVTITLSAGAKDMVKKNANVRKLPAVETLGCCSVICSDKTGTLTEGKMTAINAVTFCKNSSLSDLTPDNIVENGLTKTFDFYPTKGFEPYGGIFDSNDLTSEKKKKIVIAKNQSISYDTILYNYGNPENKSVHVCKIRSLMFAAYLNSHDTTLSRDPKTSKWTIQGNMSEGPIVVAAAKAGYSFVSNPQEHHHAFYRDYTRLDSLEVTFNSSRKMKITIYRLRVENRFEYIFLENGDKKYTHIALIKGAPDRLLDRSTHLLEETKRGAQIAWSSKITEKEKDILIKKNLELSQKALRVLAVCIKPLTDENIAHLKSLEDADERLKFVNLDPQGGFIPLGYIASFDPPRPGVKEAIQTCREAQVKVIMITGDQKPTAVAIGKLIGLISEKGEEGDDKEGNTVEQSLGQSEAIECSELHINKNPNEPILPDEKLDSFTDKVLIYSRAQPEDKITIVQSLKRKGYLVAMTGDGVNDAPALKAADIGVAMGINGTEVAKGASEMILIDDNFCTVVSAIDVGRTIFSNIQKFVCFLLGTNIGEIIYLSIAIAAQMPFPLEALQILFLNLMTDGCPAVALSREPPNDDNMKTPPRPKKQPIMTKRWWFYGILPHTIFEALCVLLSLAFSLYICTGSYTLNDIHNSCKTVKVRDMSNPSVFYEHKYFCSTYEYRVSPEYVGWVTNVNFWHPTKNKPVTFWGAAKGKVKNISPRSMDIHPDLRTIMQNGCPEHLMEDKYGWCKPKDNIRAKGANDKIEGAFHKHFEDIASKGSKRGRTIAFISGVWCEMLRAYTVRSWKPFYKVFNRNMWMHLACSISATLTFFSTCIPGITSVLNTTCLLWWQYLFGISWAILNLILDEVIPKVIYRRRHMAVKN
Text: growth inhibition of orthologue replacement parasite line, SYBR green I (whole-cell read-out) on PocATP4 (PocATP4^OR line)

PfATP4 (PfATP4^OR line) [5] = target: T5, PfATP4 (PfATP4^OR line) (Plasmodium falciparum, UniProt A0A143ZZK9); test: as above; conditions: intact P. knowlesi parasites in erythrocytes, 27 h (one life cycle); not a direct enzyme assay
T5 construct: gene ATP4; full-length recodonized coding region replacing pkatp4 in P. knowlesi A1-H.1; untagged; intact parasites
Text: growth inhibition of orthologue replacement parasite line, SYBR green I (whole-cell read-out) on PfATP4 (PfATP4^OR line)

[6] = target: T4, PocATP4 (PocATP4^OR line); test: SBFI fluorescence of intracellular Na+ in saponin-isolated trophozoites; conditions: 0.1 µM, physiological saline, pH 7.1, 37°C
Text: SBFI fluorescence of intracellular Na+ in saponin-isolated trophozoites on PocATP4 (PocATP4^OR line)

PmATP4 (PmATP4^OR line) [7] = target: T3, PmATP4 (PmATP4^OR line); test: as above; conditions: 0.1 µM, physiological saline, pH 7.1, 37°C
Text: SBFI fluorescence of intracellular Na+ in saponin-isolated trophozoites on PmATP4 (PmATP4^OR line)

PkATP4 (PkATP4^OR line) [8] = target: T2, PkATP4 (PkATP4^OR line); test: as above; conditions: 0.1 µM, physiological saline, pH 7.1, 37°C
Text: SBFI fluorescence of intracellular Na+ in saponin-isolated trophozoites on PkATP4 (PkATP4^OR line)

PfATP4 (PfATP4^OR line) [9] = target: T5, PfATP4 (PfATP4^OR line); test: as above; conditions: 0.1 µM, physiological saline, pH 7.1, 37°C
Text: SBFI fluorescence of intracellular Na+ in saponin-isolated trophozoites on PfATP4 (PfATP4^OR line)

PvATP4 (PvATP4^OR line) [10] = target: T1, PvATP4 (PvATP4^OR line); test: as above; conditions: 0.1 µM, physiological saline, pH 7.1, 37°C
Text: SBFI fluorescence of intracellular Na+ in saponin-isolated trophozoites on PvATP4 (PvATP4^OR line)

T5 sequence (A0A143ZZK9 whole entry): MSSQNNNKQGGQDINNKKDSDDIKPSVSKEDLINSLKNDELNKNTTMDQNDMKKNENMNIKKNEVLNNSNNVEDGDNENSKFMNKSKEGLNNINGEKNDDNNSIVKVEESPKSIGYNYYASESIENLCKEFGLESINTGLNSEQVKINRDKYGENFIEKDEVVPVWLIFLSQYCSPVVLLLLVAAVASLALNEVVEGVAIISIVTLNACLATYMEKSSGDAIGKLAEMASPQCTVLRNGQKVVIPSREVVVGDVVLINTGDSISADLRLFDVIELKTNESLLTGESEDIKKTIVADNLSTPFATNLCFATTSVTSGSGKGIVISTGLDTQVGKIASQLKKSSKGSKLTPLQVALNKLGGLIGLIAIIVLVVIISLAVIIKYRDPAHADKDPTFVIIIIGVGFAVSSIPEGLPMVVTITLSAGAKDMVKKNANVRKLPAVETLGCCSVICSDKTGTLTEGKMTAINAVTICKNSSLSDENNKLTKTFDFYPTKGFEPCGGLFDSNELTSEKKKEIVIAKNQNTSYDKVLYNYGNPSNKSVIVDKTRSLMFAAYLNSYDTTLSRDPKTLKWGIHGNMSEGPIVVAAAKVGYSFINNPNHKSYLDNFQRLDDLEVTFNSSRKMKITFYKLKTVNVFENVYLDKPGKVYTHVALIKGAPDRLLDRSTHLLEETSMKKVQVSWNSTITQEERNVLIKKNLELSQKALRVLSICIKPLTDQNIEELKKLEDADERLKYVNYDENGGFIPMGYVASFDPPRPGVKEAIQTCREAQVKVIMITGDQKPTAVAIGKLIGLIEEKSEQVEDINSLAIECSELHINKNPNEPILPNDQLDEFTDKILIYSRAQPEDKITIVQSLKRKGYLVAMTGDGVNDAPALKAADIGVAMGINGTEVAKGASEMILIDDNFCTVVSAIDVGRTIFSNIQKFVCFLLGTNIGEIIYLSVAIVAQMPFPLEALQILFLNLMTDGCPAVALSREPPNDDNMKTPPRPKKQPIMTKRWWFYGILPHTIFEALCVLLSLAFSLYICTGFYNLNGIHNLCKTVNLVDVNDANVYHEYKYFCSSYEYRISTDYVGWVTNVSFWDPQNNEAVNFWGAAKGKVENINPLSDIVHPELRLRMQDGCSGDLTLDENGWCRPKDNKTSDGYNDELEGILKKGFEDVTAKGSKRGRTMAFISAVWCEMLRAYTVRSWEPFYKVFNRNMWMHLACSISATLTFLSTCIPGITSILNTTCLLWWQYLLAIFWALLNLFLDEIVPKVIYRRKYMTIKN

PA21A092
EC50, nM (P value) / PA21A092 (PvATP4 (PvATP4^OR line) [1]): 94.8 ± 14.6 nM | EC50, nM (P value) / PA21A092 (PkATP4 (PkATP4^OR line) [2]): 126 ± 5.5 nM | EC50, nM (P value) / PA21A092 (PmATP4 (PmATP4^OR line) [3]): 92.8 ± 14.7 nM | EC50, nM (P value) / PA21A092 [4]: 599 ± 70 nM | EC50, nM (P value) / PA21A092 (PfATP4 (PfATP4^OR line) [5]): 17.8 ± 2.9 nM

C[C@H]1Cc2c([nH]c3cc(Cl)c(F)cc23)[C@@]2(N1)C(=O)Nc1ccc(Cl)cc12 [cipargamin]
EC50, nM (P value) / Cipargamin (PvATP4 (PvATP4^OR line) [1]): 22.9 ± 4.2 nM | EC50, nM (P value) / Cipargamin (PkATP4 (PkATP4^OR line) [2]): 13.5 ± 2.4 nM | Rate of increase in [Na^+]i 10 min after cipargamin exposure, μM/s (P value) [6]: 41.5 ± 8.85 µM/s | Rate of increase in [Na^+]i 10 min after cipargamin exposure, μM/s (P value) (PmATP4 (PmATP4^OR line) [7]): 35.7 ± 8.07 µM/s | EC50, nM (P value) / Cipargamin (PmATP4 (PmATP4^OR line) [3]): 9.44 ± 2.0 nM | Rate of increase in [Na^+]i 10 min after cipargamin exposure, μM/s (P value) (PkATP4 (PkATP4^OR line) [8]): 35.8 ± 9.98 µM/s | EC50, nM (P value) / Cipargamin [4]: 34.1 ± 1.6 nM | Rate of increase in [Na^+]i 10 min after cipargamin exposure, μM/s (P value) (PfATP4 (PfATP4^OR line) [9]): 203.2 ± 54.1 µM/s | EC50, nM (P value) / Cipargamin (PfATP4 (PfATP4^OR line) [5]): 1.62 ± 0.37 nM | Rate of increase in [Na^+]i 10 min after cipargamin exposure, μM/s (P value) (PvATP4 (PvATP4^OR line) [10]): 96.6 ± 47.3 µM/s
